Key:
Type in all cases: cell-based
[1] = tested on: HEK293T cells; experiment: cell death, FITC Annexin V kit, flow cytometry; details: 40 μM, 12 h
Protocol: (§1) Fig. 4 CH004 arrests the cell cycle at the S phase. a CH004 reduces the cell viability of HEK293T and HepG2 cells. HEK293T or HepG2 cells were treated with indicated concentrations of CH004 for 24 h before the cell number was analyzed using the CellTiter96® Aqueous One Solution Cell Proliferation Assay (Promega, Materials and Methods). The means at each concentration of one representative experiment are shown as percentages of DMSO (control, 100%). Means ± SDs (n = 3). b Overexpression of hCBS or knock-down of hCBS counteracts the growth inhibition exerted by CH004 in HEK293T cells. Indicated HEK293T stable cell lines were treated with the CH004 or DMSO for 24 h. Then, the cell viability was quantified with the CellTiter 96® Aqueous One Solution Cell Proliferation Assay under the standard protocol (Promega). […] The efficacy for CBS overexpression and knock-down in HEK293T cells was determined by Western blotting using an anti-CBS antibody (3E1, 1:2000; Abnova). c CH004 induces cell death in HEK293T and HepG2 cells. […] HEK293T cells were incubated with indicated compounds for 12 h, and the DNA content was quantified with propidium iodide to analyze the cell cycle distribution by flow cytometry (e). The cell cycle distributions for HEK293T-shNT and HEK293T-shCBS cells were accordingly analyzed and are shown in f. […]

[2] = tested on: HEK293T cells; experiment: cell cycle distribution (propidium iodide, flow cytometry); details: 3 μM, 12 h
Protocol: as §1

[3] = tested on: mouse embryonic fibroblasts (MEF); experiment: lipid ROS (BODIPY 581/591 C11, flow cytometry); details: low micromolar concentrations, 24 h
Protocol: To detect lipid peroxidation upon treatment with CH004, HepG2 cells or mouse embryonic fibroblasts (MEF) were seeded in 12-well plates with ~ 1.8 × 10^5 cells per well for 24 h. After treatment with the inhibitor for another 24 h, cells were stained with BODIPY® 581/591 C11 (Invitrogen) for 1 h at a final concentration of 2 μM at 37 °C[57]. The cells were then resuspended in an appropriate amount of PBS after being washed once with PBS. Lipid peroxidation, i.e., lipid ROS, was analyzed by detection of the fluorescence using an LSR Fortessa flow cytometer. The data were recorded at 530/30 nm (green fluorescent) and 670/30 nm (red fluorescent) wavelengths after excitation at 488 nm. A minimum of 20000 events was used for the analysis. All the experiments were independently repeated twice in triplicate.
Figure S15. The mode of actions for CH004 in cells. […] Indicated HEK293T stable cell lines were treated with CH004 at a concentration of 10 µM for 24 h, and the cell viability was then measured using the CellTiter96® Aqueous One Solution Cell Proliferation Assay (Promega). Means ± SDs (n=3). (B-C) CH004 or erastin triggers ferroptosis in mouse embryonic fibroblasts (MEF). […] The cell viability was accordingly quantified using the CellTiter96® Aqueous One Solution Cell Proliferation Assay (Promega) and the results were shown as percentages of DMSO (control, 100%). […]

For `Cn1nc(Cc2ccccc2)nc2c(=O)n(C)c(=O)nc1-2` [CH004, 3-benzyl-1,6-dimethylpyrimido[5,4-e][1,2,4]triazine-5,7(1H,6H)-dione], the “increase in cell death” value [1] was ~ 30%, the “increase in cell number in the S phase” value [2] was “more than 20%” and the “induction of ferroptosis (lipid ROS) in MEF” value [3] was ~2 fold.

Reference: article PMC6158189, “A pharmacological probe identifies cystathionine β-synthase as a new negative regulator for ferroptosis” (Cell Death & Disease, 2018)
